{
  "source": "ChEMBL document CHEMBL5543155",
  "about": "“Design, Synthesis, and Biological Evaluation of β-Trifluoroethoxydimethyl Selenides as Potent Antiosteoporosis Agents” (J Med Chem, 2024)",
  "key": {"BMMC [1]": {"tested_on": "BMMC", "assay": "Effect on total ERK protein expression in RANKL-induced C57BL/6 mouse BMMC cells at 5 uM pretreated for 6 hrs followed by RANKL stimulation and measured upto 60 mins by Western blot analysis", "type": "functional, cell-based", "conditions": "time <= 7.0 hrs"}, "Mus musculus [2]": {"tested_on": "Mus musculus", "assay": "Anti-osteoporosis activity in ovariectomized C57BL/6 mouse assessed as reduction in bone loss by measuring increase in trabecular number at 10 mg/kg, ip administered every other day for 8 weeks by micro-CT analysis", "type": "functional, organism-based"}, "[3]": {"assay": "Toxicity in OVX osteoporotic C57BL/6 mouse assessed as effect on size and surface gloss of liver at 10 mg/kg, ip administered every other day for 8 weeks by H and E staining based analysis", "type": "organism-based", "conditions": "in vivo, 1344 h"}, "Mus musculus [4]": {"tested_on": "Mus musculus", "assay": "Anti-osteoporosis activity in ovariectomized C57BL/6 mouse assessed as reduction in bone loss by measuring increase in bone volume/total bone volume (BV/TV) at 10 mg/kg, ip administered every other day for 8 weeks by micro-CT analysis", "type": "functional, organism-based"}, "BMMC [5]": {"tested_on": "BMMC", "assay": "Anti-osteoclastogenesis activity in M-CSF/RANKL-induced C57BL/6 mouse BMMC cells assessed as downregulation of NFATc1 gene expression incubated for 5 days by qRT-PCR analysis", "type": "functional, cell-based", "conditions": "dose 0-10 µM, time 5.0 day"}, "MC3T3-E1 [6]": {"tested_on": "MC3T3-E1", "assay": "Cytotoxicity against mouse MC3T3-e1 cells assessed as reduction in cell viability at 2.5 to 10 uM measured after 7 days by MTT assay", "type": "toxicity, cell-based", "conditions": "mc3t3-e1, 168 h, dose 2.5-10 µM, time 7 day"}, "BMMC [7]": {"tested_on": "BMMC", "assay": "Anti-osteoclastogenesis activity in M-CSF/RANKL-induced C57BL/6 mouse BMMC cells assessed as prevention of osteoclasts precursor differentiation at 5 uM measured on day 1 to 3 by TRAP-staining based light microscopic analysis", "type": "functional, cell-based", "conditions": "time 1-3 day"}, "BMMC [8]": {"tested_on": "BMMC", "assay": "Anti-osteoclastogenesis activity in M-CSF/RANKL-induced C57BL/6 mouse BMMC cells assessed as downregulation of DC-STAMP gene expression incubated for 5 days by qRT-PCR analysis", "type": "functional, cell-based", "conditions": "dose 0-10 µM, time 5.0 day"}, "[9]": {"target": "T1, Tumor necrosis factor ligand superfamily member 11 (Mus musculus) (UniProt O35235)", "T1 sequence (whole entry)": "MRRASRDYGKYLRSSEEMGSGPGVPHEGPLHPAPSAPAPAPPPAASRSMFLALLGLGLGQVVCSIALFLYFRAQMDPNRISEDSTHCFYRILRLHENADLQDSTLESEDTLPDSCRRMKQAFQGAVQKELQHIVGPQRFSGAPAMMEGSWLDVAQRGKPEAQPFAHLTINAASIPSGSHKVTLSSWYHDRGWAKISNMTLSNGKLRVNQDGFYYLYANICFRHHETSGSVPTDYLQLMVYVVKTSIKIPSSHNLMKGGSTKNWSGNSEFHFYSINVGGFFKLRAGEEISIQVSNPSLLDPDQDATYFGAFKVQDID", "assay": "Binding affinity to mouse RANKL assessed as increase in resonance units measured upto 240 mins by SPR analysis", "conditions": "dose 15.63-500 µM"}, "Mus musculus [10]": {"tested_on": "Mus musculus", "assay": "Anti-osteoporosis activity in ovariectomized C57BL/6 mouse assessed as reduction in bone loss by measuring increase in trabecular thickness at 10 mg/kg, ip administered every other day for 8 weeks by micro-CT analysis", "type": "functional, organism-based"}, "BMMC [11]": {"tested_on": "BMMC", "assay": "Anti-osteoclastogenesis activity in M-CSF/RANKL-induced C57BL/6 mouse BMMC cells assessed as downregulation of TRAP gene expression incubated for 5 days by qRT-PCR analysis", "type": "functional, cell-based", "conditions": "dose 0-10 µM, time 5.0 day"}, "Mus musculus [12]": {"tested_on": "Mus musculus", "assay": "Anti-osteoporosis activity in ovariectomized C57BL/6 mouse assessed as reduction in bone loss by measuring decrease in TRAP-positive cells around trabecula at 10 mg/kg, ip administered every other day for 8 weeks by TRAP staining based analysis", "type": "functional, organism-based"}, "BMMC [13]": {"tested_on": "BMMC", "assay": "Inhibition of ERK phosphorylation in RANKL-induced C57BL/6 mouse BMMC cells at 5 uM pretreated for 6 hrs followed by RANKL stimulation and measured upto 60 mins by Western blot analysis", "type": "cell-based", "conditions": "time <= 7.0 hrs"}, "[14]": {"target": "T2, Tumor necrosis factor ligand superfamily member 11 (Mus musculus, UniProt O35235)", "T2 sequence (O35235 whole entry)": "T1 sequence (whole entry)", "assay": "Binding affinity to mouse RANKL assessed as dissociation constant by SPR analysis"}, "BMMC [15]": {"tested_on": "BMMC", "assay": "Effect on total JNK protein expression in RANKL-induced C57BL/6 mouse BMMC cells at 5 uM pretreated for 6 hrs followed by RANKL stimulation and measured upto 60 mins by Western blot analysis", "type": "functional, cell-based", "conditions": "time <= 7.0 hrs"}, "MC3T3-E1 [16]": {"tested_on": "MC3T3-E1", "assay": "Induction of osteoblast differentiation in mouse MC3T3-E1 cells assessed as bone formation by measuring increase in calcium deposition measured after 21 days by Alizarin red S staining based inverted microscopic analysis", "type": "functional, cell-based", "conditions": "dose 2.5-10 µM, time 21.0 day"}, "MC3T3-E1 [17]": {"tested_on": "MC3T3-E1", "assay": "Induction of osteoblast differentiation in mouse MC3T3-E1 cells assessed as bone formation by measuring increase in BMP2 protein expression measured after 7 days by Western blot analysis", "type": "functional, cell-based", "conditions": "dose 2.5-10 µM, time 7.0 day"}, "MC3T3-E1 [18]": {"tested_on": "MC3T3-E1", "assay": "Induction of osteoblast differentiation in mouse MC3T3-E1 cells assessed as bone formation by measuring increase in Smad protein expression measured after 7 days by Western blot analysis", "type": "functional, cell-based", "conditions": "dose 2.5-10 µM, time 7.0 day"}, "BMMC [19]": {"tested_on": "BMMC", "assay": "Anti-osteoclastogenesis activity in M-CSF/RANKL-induced C57BL/6 mouse BMMC cells assessed as downregulation of C-Fos gene expression incubated for 5 days by qRT-PCR analysis", "type": "functional, cell-based", "conditions": "dose 0-10 µM, time 5.0 day"}, "[20]": {"assay": "Toxicity in OVX osteoporotic C57BL/6 mouse assessed as abnormal behaviors at 10 mg/kg, ip administered every other day for 8 weeks", "type": "organism-based", "conditions": "in vivo, 1344 h"}, "BMMC [21]": {"tested_on": "BMMC", "assay": "Anti-osteoclastogenesis activity in M-CSF/RANKL-induced C57BL/6 mouse BMMC cells assessed as reduction in F-actin ring formation incubated for 7 days with media replacement for every other day by TRITC phalloidin/DAPI-staining based fluorescence microscopic analysis", "type": "functional, cell-based", "conditions": "dose 0-10 µM, time 7.0 day"}, "BMMC [22]": {"tested_on": "BMMC", "assay": "Anti-osteoclastogenesis activity in M-CSF/RANKL-induced C57BL/6 mouse BMMC cells assessed as downregulation of MMP-9 gene expression incubated for 5 days by qRT-PCR analysis", "type": "functional, cell-based", "conditions": "dose 0-10 µM, time 5.0 day"}, "[23]": {"assay": "Toxicity in OVX osteoporotic C57BL/6 mouse assessed as effect on size and surface gloss of lung at 10 mg/kg, ip administered every other day for 8 weeks by H and E staining based analysis", "type": "organism-based", "conditions": "in vivo, 1344 h"}, "[24]": {"assay": "Toxicity in OVX osteoporotic C57BL/6 mouse assessed as effect on size and surface gloss of kidney at 10 mg/kg, ip administered every other day for 8 weeks by H and E staining based analysis", "type": "organism-based", "conditions": "in vivo, 1344 h"}, "[25]": {"assay": "Toxicity in OVX osteoporotic C57BL/6 mouse assessed as body weight loss at 10 mg/kg, ip administered every other day for 8 weeks and measured every week", "type": "organism-based", "conditions": "in vivo, 1344 h"}, "BMMC [26]": {"tested_on": "BMMC", "assay": "Anti-osteoclastogenesis activity in M-CSF/RANKL-induced C57BL/6 mouse BMMC cells assessed as reduction in size of TRAP-positive osteoclasts at 0 to 10 uM incubated for 6 days with media replacement for every 2 days by TRAP-staining based light microscopic analysis", "type": "functional, cell-based", "conditions": "dose 0-10 µM, time 6.0 day"}, "MC3T3-E1 [27]": {"tested_on": "MC3T3-E1", "assay": "Induction of osteoblast differentiation in mouse MC3T3-E1 cells assessed as increase in ALP activity measured after 7 days by ALP staining based inverted microscopic analysis", "type": "functional, cell-based", "conditions": "dose 2.5-10 µM, time 7.0 day"}, "BMMC [28]": {"tested_on": "BMMC", "assay": "Anti-osteoclastogenesis activity in M-CSF/RANKL-induced C57BL/6 mouse BMMC cells assessed as inhibition of osteoclasts formation incubated for 6 days with media replacement for every 2 days by TRAP-staining based light microscopic analysis", "type": "functional, cell-based"}},
  "note": "The source made the active and inactive calls. The calls are words filed in the database; no cut-off is given here.",
  "data": [
    {"smiles": "CC(C)(OCC(F)(F)F)C([Se]c1ccccc1)C(=O)Nc1ccncc1", "note": "(centres undefined)", "values": [
      {"measurement": "Activity", "setting": "BMMC [1]", "result": "inactive"},
      {"measurement": "Activity", "setting": "Mus musculus [2]", "result": "Active"},
      {"measurement": "Activity", "setting": "[3]", "result": "Non-Toxic"},
      {"measurement": "Activity", "setting": "Mus musculus [4]", "result": "Active"},
      {"measurement": "Activity", "setting": "BMMC [5]", "result": "Dose-Dependent Effect"},
      {"measurement": "Activity", "setting": "MC3T3-E1 [6]", "result": "Non-Toxic"},
      {"measurement": "Activity", "setting": "BMMC [7]", "result": "Active"},
      {"measurement": "Activity", "setting": "BMMC [8]", "result": "Dose-Dependent Effect"},
      {"measurement": "Activity", "setting": "[9]", "result": "Active"},
      {"measurement": "Activity", "setting": "Mus musculus [10]", "result": "Active"},
      {"measurement": "Activity", "setting": "BMMC [11]", "result": "Dose-Dependent Effect"},
      {"measurement": "Activity", "setting": "Mus musculus [12]", "result": "Active"},
      {"measurement": "inhibition", "setting": "BMMC [13]", "result": "Active"},
      {"measurement": "Kd", "setting": "[14]", "result": 268, "unit": "µM"},
      {"measurement": "Activity", "setting": "BMMC [15]", "result": "inactive"},
      {"measurement": "Activity", "setting": "MC3T3-E1 [16]", "result": "Dose-Dependent Effect"},
      {"measurement": "Activity", "setting": "MC3T3-E1 [17]", "result": "Dose-Dependent Effect"},
      {"measurement": "Activity", "setting": "MC3T3-E1 [18]", "result": "Dose-Dependent Effect"},
      {"measurement": "Activity", "setting": "BMMC [19]", "result": "Dose-Dependent Effect"},
      {"measurement": "Activity", "setting": "[20]", "result": "Non-Toxic"},
      {"measurement": "Activity", "setting": "BMMC [21]", "result": "Dose-Dependent Effect"},
      {"measurement": "Activity", "setting": "BMMC [22]", "result": "Dose-Dependent Effect"},
      {"measurement": "Activity", "setting": "[23]", "result": "Non-Toxic"},
      {"measurement": "Activity", "setting": "[24]", "result": "Non-Toxic"},
      {"measurement": "Activity", "setting": "[25]", "result": "Non-Toxic"},
      {"measurement": "Activity", "setting": "BMMC [26]", "result": "Active"},
      {"measurement": "Activity", "setting": "MC3T3-E1 [27]", "result": "Dose-Dependent Effect"},
      {"measurement": "IC50", "setting": "BMMC [28]; C57BL/6, BMMC", "result": 2.41, "unit": "µM"},
      {"measurement": "Activity", "setting": "BMMC [28]; dose 0-10 µM, time 6.0 day", "result": "Dose-Dependent Effect"}
    ]}
  ]
}
